Results on 29 molecules are retold here after ChEMBL document CHEMBL5724709, “EUbOPEN Chemogenomics Library - IncuCyte” (2024).

Square brackets hold non-standard residues; d marks the D form. Peptide text beside a SMILES is read from it.

What all share (type): toxicity, cell-based
The subject of one data set is U2OS. In words: Incucyte cell viability with U2OS. Particulars: human, 24 h, 10 µM, compound concentration 10 uM.
Another data set relates to HEK-293T. The data set can be described thus: Incucyte cell viability with HEK293T. Conditions: human, 24 h, 10 µM, compound concentration 10 uM.
A further data set deals with Fibroblast. In words: Incucyte cell viability with human fibroblast. Conditions: 24 h, 10 µM, compound concentration 10 uM.
Note: unitless GR value; below 1 slowed growth and below 0 cell loss.

Consider `CN1CCc2c(n(Cc3ccc(C(=O)NO)cc3)c3ccccc23)C1`, for which the “Growth Rate” value with U2OS (replicate number 1) was 0.34; with U2OS (replicate number 2), 1; with HEK-293T (replicate number 1), 0.89; in the data set with HEK-293T (replicate number 2), 1; in the data set on Fibroblast (replicate number 1) it was 1; in the data set on Fibroblast (replicate number 2) it was 0.54.

Turning to `O=C(NO)c1cccc(C(=O)NCCc2ccccc2)c1`, the “Growth Rate” value with U2OS (replicate number 1) is 0.02; with U2OS (replicate number 2) it was 0.85; with HEK-293T (replicate number 1), 0.83; with HEK-293T (replicate number 2), 0.99; in the data set with Fibroblast (replicate number 1) it was 1; in the data set on Fibroblast (replicate number 2), -0.07.

With `O=C(NCC1(c2nc(-c3ccccc3)cs2)CCOCC1)c1cccc(-c2noc(C(F)(F)F)n2)c1`, the “Growth Rate” value in the data set with U2OS (replicate number 1) was determined as 1; with HEK-293T (replicate number 1), 0.36; in the data set on HEK-293T (replicate number 2), 0.64; with Fibroblast (replicate number 1) it was 1; with Fibroblast (replicate number 2) it was 0.44.

For `CC(C)NCC(O)COC(Cn1c2ccccc2c2ccccc21)Cn1c2ccccc2c2ccccc21` (stereo unspecified), the “Growth Rate” value was -0.53 with U2OS (replicate number 1); 1 in the data set on U2OS (replicate number 2); 1 with HEK-293T (replicate number 1); 1 with Fibroblast (replicate number 1); 0.03 in the data set on Fibroblast (replicate number 2).

In the case of `CCC(CC)(NC(=O)C(C)C)C(=O)N[C@@H](CCCNC(=N)N)C(=O)NC1(C(=O)NC(c2ccc(F)cc2)c2ccc(F)cc2)CCCC1`, the “Growth Rate” value is 1 in the data set with U2OS (replicate number 1); 0.97 in the data set on U2OS (replicate number 2); 0.95 with HEK-293T (replicate number 1); 1 in the data set on HEK-293T (replicate number 2); 0.56 in the data set on Fibroblast (replicate number 1); -0.56 with Fibroblast (replicate number 2).

With `CCC(=O)N1CCOc2c(cc(-c3cc(OC)cc(OC)c3)cc2C(=O)N[C@H]2CCCN(C)C2)C1`, the “Growth Rate” value in the data set with U2OS (replicate number 1) worked out at 0.42; with U2OS (replicate number 2), 1; in the data set on HEK-293T (replicate number 1), 0.39; in the data set on HEK-293T (replicate number 2), 0.7; with Fibroblast (replicate number 1) it was 0.84; in the data set with Fibroblast (replicate number 2) it was 0.98.

Turning to `Nc1ccc(-c2cccs2)cc1NC(=O)c1ccc2nc(N3CCNCC3)ccc2c1`, the “Growth Rate” value with U2OS (replicate number 1) was determined as 0.21; in the data set on U2OS (replicate number 2), 0.63; in the data set on HEK-293T (replicate number 1), 0.92; with HEK-293T (replicate number 2), 0.99; in the data set on Fibroblast (replicate number 1) it was 1.

Take `COc1cc2c(NCC3CCN(C)CC3)cc(-c3ccc(C)o3)nc2cc1OCCCN1CCCC1`: the “Growth Rate” value is listed as -0.64 with U2OS (replicate number 1); -0.51 in the data set on U2OS (replicate number 2); -0.36 with HEK-293T (replicate number 1); -0.29 with HEK-293T (replicate number 2); 0.34 in the data set on Fibroblast (replicate number 1); -0.3 with Fibroblast (replicate number 2).

On to `CNC(=O)c1ccc(-c2cc3cccc(-c4nn(C5CCOCC5)c5c4CN(C(C)=O)CC5)c3cn2)cn1`, for which the “Growth Rate” value amounted to 0.12 in the data set on U2OS (replicate number 1); 0.95 in the data set on U2OS (replicate number 2); 0.61 in the data set on HEK-293T (replicate number 1); 0.57 with HEK-293T (replicate number 2); 1 in the data set on Fibroblast (replicate number 1).

As to `COc1nc(N)nc(Nc2cc(S(N)(=O)=O)ccc2N[C@@H](c2cccc3c2OC(F)(F)O3)c2ncccc2Cl)n1`, the “Growth Rate” value with U2OS (replicate number 1) is listed as 1; in the data set with U2OS (replicate number 2) it was 0.89; with HEK-293T (replicate number 1), 0.97; with HEK-293T (replicate number 2), 1; with Fibroblast (replicate number 1) it was 1.

For `Cc1cc(C)cc(Oc2ccc(CNC(=O)[C@H](C)N)cc2C)c1.Cl`, the “Growth Rate” value in the data set with U2OS (replicate number 1) is on record as 0.69; with U2OS (replicate number 2) it was 1; with HEK-293T (replicate number 1) it was 0.84; in the data set with HEK-293T (replicate number 2), 0.89; in the data set with Fibroblast (replicate number 1) it was 1.

For `O=C(NO)C(c1ccc(-c2ncc(C(F)(F)F)cn2)cc1)c1ccccc1F` (stereo unspecified), the “Growth Rate” value in the data set on U2OS (replicate number 1) was 0.6; with U2OS (replicate number 2) it was 0.81; in the data set on HEK-293T (replicate number 1), -0.14; in the data set with HEK-293T (replicate number 2), 0.69; with Fibroblast (replicate number 1), 0.37; with Fibroblast (replicate number 2), -0.57.

`C=CC(=O)Nc1cccc(-c2c[nH]cc2CN(C)CCN)c1`: the “Growth Rate” value in the data set on U2OS (replicate number 1) was determined as 0.21; with U2OS (replicate number 2), 1; in the data set on HEK-293T (replicate number 1) it was 0.75; in the data set on HEK-293T (replicate number 2), 0.9; with Fibroblast (replicate number 1) it was 0.37; in the data set with Fibroblast (replicate number 2) it was 1.

As to `OC1CN=C2c3ccn([C@@H]4O[C@H]([C@H](O)c5ccc(Cl)cc5)[C@@H](O)[C@H]4O)c3N=CN21` (stereo partly specified), the “Growth Rate” value with U2OS (replicate number 1) is reported as 1; in the data set on U2OS (replicate number 2) it was 0.79; in the data set on HEK-293T (replicate number 1), 1; in the data set on Fibroblast (replicate number 1), 1; in the data set with Fibroblast (replicate number 2), -0.38.

Consider `CC(C)(C)c1ccc(CN(C(=O)CN(Cc2c(F)c(F)c(F)c(F)c2F)S(=O)(=O)c2ccc(F)cc2)c2ccc(C(=O)NO)cc2)cc1`, for which the “Growth Rate” value in the data set on U2OS (replicate number 1) was 0.17; in the data set on U2OS (replicate number 2) it was 1; with HEK-293T (replicate number 1), 0.62; in the data set on HEK-293T (replicate number 2) it was 0.53; in the data set with Fibroblast (replicate number 1), 0.66; in the data set on Fibroblast (replicate number 2), -0.2.

Take `Cc1ccc(N2C(=O)/C(=C/C=C/c3ccco3)C(=O)NC2=S)cc1Cl`: the “Growth Rate” value in the data set on U2OS (replicate number 1) was determined as 1; with HEK-293T (replicate number 1), 0.94; in the data set with HEK-293T (replicate number 2), 1; in the data set with Fibroblast (replicate number 1), 0.45; with Fibroblast (replicate number 2), 1.

Turning to `O=C(NO)c1ccc(CN2CCCc3cc(Cl)ccc32)cc1`, the “Growth Rate” value in the data set on U2OS (replicate number 1) is reported as 0; in the data set with U2OS (replicate number 2), 0.79; with HEK-293T (replicate number 1), 0.69; in the data set on HEK-293T (replicate number 2), 0.85; in the data set on Fibroblast (replicate number 1) it was 0.78; in the data set with Fibroblast (replicate number 2), -0.22.

Take `CCCOC(=O)N1CCN(C(=O)c2ccc3c(Cl)cc(-c4ccc(C5(N)CC5)cc4)nc3c2)C[C@H]1C`: the “Growth Rate” value is recorded as 0.52 in the data set on U2OS (replicate number 1); 1 in the data set with U2OS (replicate number 2); 0.01 in the data set on HEK-293T (replicate number 1); 0.3 in the data set on HEK-293T (replicate number 2); 1 in the data set with Fibroblast (replicate number 1); -0.86 in the data set on Fibroblast (replicate number 2).

Turning to `CCCCCCCCCCCCCCCCNNC(=O)c1cccs1`, the “Growth Rate” value with U2OS (replicate number 1) was found to be 0.83; with U2OS (replicate number 2), 1; in the data set on HEK-293T (replicate number 1), 0.8; in the data set on HEK-293T (replicate number 2) it was 1; in the data set on Fibroblast (replicate number 1), 0.8; with Fibroblast (replicate number 2) it was 0.19.

With `CNC(=O)Cn1cc(-c2ccc3c(c2)[C@H](F)C[C@]32NC(=O)N(CC(=O)N(Cc3ccc(F)cc3)[C@@H](C)C(F)(F)F)C2=O)cn1`, the “Growth Rate” value is on record as -0.12 in the data set on U2OS (replicate number 1); 0.63 with U2OS (replicate number 2); -0.53 with HEK-293T (replicate number 1); 0.24 in the data set with HEK-293T (replicate number 2); 0.7 with Fibroblast (replicate number 1); -0.43 in the data set with Fibroblast (replicate number 2).

As for `Cc1ccc(F)c2cc(C(=O)N[C@@H]3CCC[C@H](N4CC[C@H](N(C)S(C)(=O)=O)C4)C3)[nH]c12`, the “Growth Rate” value with U2OS (replicate number 1) came to 1; in the data set with U2OS (replicate number 2) it was 0.67; in the data set with HEK-293T (replicate number 1), 0.35; in the data set on HEK-293T (replicate number 2), 0.62; in the data set on Fibroblast (replicate number 1) it was 1.

With `Cc1cc(-c2ccc3nc(C4CCOCC4)n(CCOC(F)(F)F)c3c2)cn(C)c1=O`, the “Growth Rate” value with U2OS (replicate number 1) was -0.23; in the data set with U2OS (replicate number 2), 0.68; in the data set with HEK-293T (replicate number 1), 0.62; in the data set on HEK-293T (replicate number 2) it was 0.67; in the data set with Fibroblast (replicate number 1), 0.36; in the data set on Fibroblast (replicate number 2) it was -0.06.

Consider `Cc1ncsc1-c1ccc([C@H](C)NC(=O)[C@@H]2C[C@@H](O)CN2C(=O)[C@@H](NC(=O)CNC(=O)c2ccc(F)c(-c3ccc(N4C[C@@H](C)N(C)[C@@H](C)C4)c(NC(=O)c4c[nH]c(=O)cc4C(F)(F)F)c3)c2)C(C)(C)C)cc1`, for which the “Growth Rate” value in the data set with U2OS (replicate number 1) is on record as 1; with U2OS (replicate number 2), 0.89; in the data set on HEK-293T (replicate number 1), 0.6; with HEK-293T (replicate number 2) it was 0.78; with Fibroblast (replicate number 1) it was -0.11; in the data set on Fibroblast (replicate number 2), 0.89.

`CN(C)CCCN(CC[C@H](N)C(=O)O)C[C@H]1O[C@@H](n2cnc3c(N)ncnc32)[C@H](O)[C@@H]1O.O=C(O)C(F)(F)F`: the “Growth Rate” value was 1 with U2OS (replicate number 1); 0.85 with HEK-293T (replicate number 1); 0.98 in the data set with HEK-293T (replicate number 2); 0.74 in the data set on Fibroblast (replicate number 1); 0.03 in the data set with Fibroblast (replicate number 2).

With `Cc1nc(F)ccc1-c1cc(Cn2ccn(C)c2=N)cc(C(=O)NCc2ccc(Cl)c(Cl)c2)c1.O=C(O)C(F)(F)F`, the “Growth Rate” value turned out to be 1 with U2OS (replicate number 1); 0.97 in the data set on HEK-293T (replicate number 1); 0.95 with HEK-293T (replicate number 2); 0.97 in the data set on Fibroblast (replicate number 1); 0.38 with Fibroblast (replicate number 2).

With `COc1cccc(OC)c1S(=O)(=O)Nc1noc2cc(Cn3cccn3)cc(OC)c12`, the “Growth Rate” value in the data set with U2OS (replicate number 1) is recorded as 0.39; with U2OS (replicate number 2), 1; in the data set with HEK-293T (replicate number 1), 0.71; in the data set on HEK-293T (replicate number 2), 0.55; in the data set with Fibroblast (replicate number 1), 0.79; in the data set with Fibroblast (replicate number 2) it was 1.

`CCOCC1(COCC)CCC(c2n[nH]cc2CN(C)CCNC)CC1.Cl`: the “Growth Rate” value in the data set on U2OS (replicate number 1) was determined as 0.95; with HEK-293T (replicate number 1) it was 0.61; with HEK-293T (replicate number 2) it was 0.63; in the data set with Fibroblast (replicate number 1) it was 1; in the data set with Fibroblast (replicate number 2), 0.32.

For the molecule `O=C1Cc2cc(C(=O)N[C@@H]3C[C@H]4CC[C@@H](C3)N4S(=O)(=O)CC3CCN(CCCC(F)(F)F)CC3)c(Cl)cc2N1`, the “Growth Rate” value came out at 1 with U2OS (replicate number 1); 0.97 with HEK-293T (replicate number 1); 1 with HEK-293T (replicate number 2); 0.96 in the data set on Fibroblast (replicate number 1); 0.61 with Fibroblast (replicate number 2).

On to `CC(=O)N[C@@H](C)C(=O)N[C@@H](CCC(=O)O)C(=O)N[C@H](C(=O)N[C@@H](C=O)CC(=O)O)C(C)C` (Ac-AEV[dD]-aldehyde), for which the “Growth Rate” value with U2OS (replicate number 1) was 0.88; with U2OS (replicate number 2), 0.76; with HEK-293T (replicate number 1), 0.78; in the data set on HEK-293T (replicate number 2), 1; in the data set on Fibroblast (replicate number 1), 0.31; in the data set with Fibroblast (replicate number 2), 0.14.
